# Literature values, collected in US9751843B2, “Substituted uracils and use thereof” (Bayer Pharma Aktiengesellschaft, priority 2013, dated 2017).
# Test system: chymase
# [1] = hamsters, myocardial infarction model
compound,measurement,setting,value
CCOc1ccccc1CC1C(=O)N(C(=O)NC(c2ccc(C)cc2)c2ccc(C)cc2)C1Oc1ccc(C(=O)O)cc1 (stereo not drawn) [BCEAB],chymase activity,"hamster, in vivo",reduced
same,hemodynamics,[1],improved
same,mortality,[1],reduced
